# In patent US9409870B2, “Compounds” (CHIESI FARMACEUTICI S.p.A., priority 2014, dated 2016):
# pIC50: −log10 of the molar value.
# Target: T1, human neutrophil elastase (HNE) (Homo sapiens, UniProt P08246)
# T1 construct: purchased Sigma E8140
# T1 sequence (P08246 30-247 limits assumed): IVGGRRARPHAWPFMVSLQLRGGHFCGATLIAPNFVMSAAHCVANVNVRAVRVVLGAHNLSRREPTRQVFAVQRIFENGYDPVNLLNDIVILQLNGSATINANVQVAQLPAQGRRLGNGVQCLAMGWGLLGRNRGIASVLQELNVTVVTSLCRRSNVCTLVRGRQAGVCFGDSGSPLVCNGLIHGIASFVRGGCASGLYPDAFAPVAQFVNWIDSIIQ
# Assay: HNE enzyme activity assay (fluorogenic peptide substrate MeOSuc-Ala-Ala-Pro-Val-AMC)
# Type: biochemical
# Conditions: human leukocyte elastase 0.00072 U/mL, substrate 100 μM, 25° C., 30 minutes, pH 7.5; at least two separate experiments; read-out: FINE inhibition (HNE enzyme inhibition, IC50 values)
# Protocol: Compounds of this invention were tested for potency in a human neutrophil elastase (HNE) enzyme activity assay.
# Assays were performed in 96-well plates in a total assay volume of 100 μL. The final concentration of elastase enzyme (human leukocyte elastase, Sigma E8140) was 0.00072 U/mL. The peptide substrate (MeOSuc-Ala-Ala-Pro-Val-AMC, Calbiochem #324740) was used at a final concentration of 100 μM. The final concentration of DMSO was 1% in the assay buffer (0.05M Tris.HCl, 0.1M NaCl, 0.1M CaCl2, 0.0005% brij-35, pH 7.5). The enzymatic reaction was started by addition of the enzyme and incubated at 25° C. for 30 minutes. After incubation, the reaction was stopped by addition of soybean trypsin inhibitor (Sigma T9003) at a final concentration of 50 μg/well. Fluorescence was measured using a Molecular Devices fluorescence plate reader using 380 nm excitation and 460 nm emission wavelengths.
# A dose response to each compound was performed and the effect of compound in each experiment was expressed as a percentage inhibition of the control enzyme fluorescence. Dose response curves were plotted and compound potency (IC50) was determined. Compounds were tested in at least two separate experiments.
row,Structure (SMILES),pIC50
1,"Cc1c(-c2ccnn2-c2ccc(C#N)cc2)n(C(=O)N[C@@H]2COC[C@H]2O)c(=O)n1-c1cccc(C(F)(F)F)c1 (racemic) [Example 48, Mixture of 5-[2-(4-Cyano-phenyl)-2H-pyrazol-3-yl]-4-methyl-2-oxo-3-(3-trifluoromethyl-phenyl)-2,3-dihydro-imidazole-1-carboxylic acid ((3R,4S)-4-hydroxy-tetrahydro-furan-3-yl)-amide and 5-[2-(4-Cyano-phenyl)-2H-pyrazol-3-yl]-4-methyl-2-oxo-3-(3-trifluoromethyl-phenyl)-2,3-dihydro-imidazole-1-carboxylic acid ((3S,4R)-4-hydroxy-tetrahydro-furan-3-yl)-amide]",> 9.00
2,"Cc1c(-c2ccnn2-c2ccc(C#N)cc2)[nH]c(=O)n1-c1cccc(C(F)(F)F)c1 [Example 1, 4-(5-{5-Methyl-2-oxo-1-[3-(trifluoromethyl)phenyl]-2,3-dihydro-1H-imidazol-4-yl}-1H-pyrazol-1-yl)benzonitrile]",7.30 to 8.00
3,"CCNC(=O)n1c(-c2ccnn2-c2ccc(C#N)cc2)c(C)n(-c2cccc(C(F)(F)F)c2)c1=O [Example 6, 5-[1-(4-Cyanophenyl)-1H-pyrazol-5-yl]-N-ethyl-4-methyl-2-oxo-3-[3-(trifluoromethyl)phenyl]-2,3-dihydro-1H-imidazole-1-carboxamide]",> 9.00
4,"Cc1c(-c2ccnn2-c2ccc(C#N)cc2)n(C(=O)NCCCO)c(=O)n1-c1cccc(C(F)(F)F)c1 [Example 8, 5-[1-(4-Cyanophenyl)-1H-pyrazol-5-yl]-N-(3-hydroxypropyl)-4-methyl-2-oxo-3-[3-(trifluoromethyl)phenyl]-2,3-dihydro-1H-imidazole-1-carboxamide]",> 9.00
5,"Cc1c(-c2ccnn2-c2ccc(C#N)cc2)n(C(=O)NCCCN(C)C)c(=O)n1-c1cccc(C(F)(F)F)c1 [Example 9, 5-[1-(4-Cyanophenyl)-1H-pyrazol-5-yl]-N-[3-(dimethylamino)propyl]-4-methyl-2-oxo-3-[3-(trifluoromethyl)phenyl]-2,3-dihydro-1H-imidazole-1-carboxamide]",8.00 to 9.00
6,"COCCNC(=O)n1c(-c2ccnn2-c2ccc(C#N)cc2)c(C)n(-c2cccc(C(F)(F)F)c2)c1=O [Example 11, 5-[1-(4-Cyanophenyl)-1H-pyrazol-5-yl]-N-(2-methoxyethyl)-4-methyl-2-oxo-3-[3-(trifluoromethyl)phenyl]-2,3-dihydro-1H-imidazole-1-carboxamide]",> 9.00
7,"Cc1c(-c2ccnn2-c2ccc(C#N)cc2)n(C(=O)NCCN(C)C)c(=O)n1-c1cccc(C(F)(F)F)c1 [Example 12, 5-[1-(4-Cyanophenyl)-1H-pyrazol-5-yl]-N-[2-(dimethylamino)ethyl]-4-methyl-2-oxo-3-[3-(trifluoromethyl)phenyl]-2,3-dihydro-1H-imidazole-1-carboxamide]",8.00 to 9.00
8,"Cc1c(-c2ccnn2-c2ccc(C#N)cc2)n(C(=O)NCCS(C)(=O)=O)c(=O)n1-c1cccc(C(F)(F)F)c1 [Example 13, 5-[1-(4-Cyanophenyl)-1H-pyrazol-5-yl]-4-methyl-N-[2-(methylsulfonyl)ethyl]-2-oxo-3-[3-(trifluoromethyl)phenyl]-2,3-dihydro-1H-imidazole-1-carboxamide]",> 9.00
9,"Cc1c(-c2ccnn2-c2ccc(C#N)cc2)n(C(=O)N[C@H]2CCOC2)c(=O)n1-c1cccc(C(F)(F)F)c1 [Example 15, 5-[1-(4-Cyanophenyl)-1H-pyrazol-5-yl]-4-methyl-2-oxo-N-[(3S)-tetrahydrfuran-3-yl]-3-[3-(trifluoromethyl)phenyl]-2,3-dihydro-1H-imidazole-1-carboxamide]",> 9.00
10,"Cc1c(-c2ccnn2-c2ccc(C#N)cc2)n(C(=O)N[C@@H]2CCOC2)c(=O)n1-c1cccc(C(F)(F)F)c1 [Example 16, 5-[1-(4-Cyanophenyl)-1H-pyrazol-5-yl]-4-methyl-2-oxo-N-[(3R)-tetrahydrofuran-3-yl]-3-[3-(trifluoromethyl)phenyl]-2,3-dihydro-1H-imidazole-1-carboxamide]",> 9.00
11,"Cc1c(-c2ccnn2-c2ccc(C#N)cc2)n(C(=O)NCc2ccn(C)n2)c(=O)n1-c1cccc(C(F)(F)F)c1 [Example 17, 5-[1-(4-Cyanophenyl)-1H-pyrazol-5-yl]-4-methyl-N-[(1-methyl-1H-pyrazol-3-yl)methyl]-2-oxo-3-[3-(trifluoromethyl)phenyl]-2,3-dihydro-1H-imidazole-1-carboxamide]",> 9.00
12,"COC(=O)n1c(-c2ccnn2-c2ccc(C#N)cc2)c(C)n(-c2cccc(C(F)(F)F)c2)c1=O [Example 18, Methyl-5-[1-(4-cyanophenyl)-1H-pyrazol-5-yl]-4-methyl-2-oxo-3-[3-(trifluoromethyl)phenyl]-2,3-dihydro-1H-imidazole-1-carboxylate]",> 9.00
13,"CCN(C)C(=O)n1c(-c2ccnn2-c2ccc(C#N)cc2)c(C)n(-c2cccc(C(F)(F)F)c2)c1=O [Example 21, 5-[1-(4-Cyanophenyl)-1H-pyrazol-5-yl]-N-ethyl-N,4-dimethyl-2-oxo-3-[3-(trifluoromethyl)phenyl]-2,3-dihydro-1H-imidazole-1-carboxamide]",7.30 to 8.00
14,"Cc1c(-c2ccnn2-c2ccc(C#N)cc2)n(CC(=O)O)c(=O)n1-c1cccc(C(F)(F)F)c1 [Example 22, {5-[1-(4-Cyanophenyl)-1H-pyrazol-5-yl]-4-methyl-2-oxo-3-[3-(trifluoromethyl)phenyl]-2,3-dihydro-1H-imidazol-1-yl}acetic acid]",7.30 to 8.00
15,"CNC(=O)Cn1c(-c2ccnn2-c2ccc(C#N)cc2)c(C)n(-c2cccc(C(F)(F)F)c2)c1=O [Example 23, 2-{5-[1-(4-Cyanophenyl)-1H-pyrazol-5-yl]-4-methyl-2-oxo-3-[3-(trifluoromethyl)phenyl]-2,3-dihydro-1H-imidazol-1-yl}-N-methylacetamide]",7.30 to 8.00

# More lines, now with the values ahead:
row,pIC50,Structure (SMILES)
1,8.00 to 9.00,"Cc1c(-c2ccnn2-c2ccc(C#N)cc2)n(CCCS(C)(=O)=O)c(=O)n1-c1cccc(C(F)(F)F)c1 [Example 2, 4-(5-{5-Methyl-3-[3-(methylsulfonyl)propyl]-2-oxo-1-[3-(trifluoromethyl)phenyl]-2,3-dihydro-1H-imidazol-4-yl}-1H-pyrazol-1-yl)benzonitrile]"
2,8.00 to 9.00,"Cc1c(-c2ccnn2-c2ccc(C#N)cc2)n(C)c(=O)n1-c1cccc(C(F)(F)F)c1 [Example 3, 4-(5-{3,5-Dimethyl-2-oxo-1-[3-(trifluoromethyl)phenyl]-2,3-dihydro-1H-imidazol-4-yl}-1H-pyrazol-1-yl)benzonitrile]"
3,> 9.00,"CCOC(=O)n1c(-c2ccnn2-c2ccc(C#N)cc2)c(C)n(-c2cccc(C(F)(F)F)c2)c1=O [Example 4, Ethyl-5-[1-(4-cyanophenyl)-1H-pyrazol-5-yl]-4-methyl-2-oxo-3-[3-(trifluoromethyl)phenyl]-2,3-dihydro-1H-imidazole-1-carboxylate]"
4,8.00 to 9.00,"CC(=O)n1c(-c2ccnn2-c2ccc(C#N)cc2)c(C)n(-c2cccc(C(F)(F)F)c2)c1=O [Example 5, 4-(5-{3-Acetyl-5-methyl-2-oxo-1-[3-(trifluoromethyl)phenyl]-2,3-dihydro-1H-imidazol-4-yl}-1H-pyrazol-1-yl)benzonitrile]"
5,8.00 to 9.00,"Cc1c(-c2ccnn2-c2ccc(C#N)cc2)n(C(=O)NCCO)c(=O)n1-c1cccc(C(F)(F)F)c1 [Example 7, 5-[1-(4-Cyanophenyl)-1H-pyrazol-5-yl]-N-(2-hydroxyethyl)-4-methyl-2-oxo-3-[3-(trifluoromethyl)phenyl]-2,3-dihydro-1H-imidazole-1-carboxamide]"
6,> 9.00,"CCCC(=O)n1c(-c2ccnn2-c2ccc(C#N)cc2)c(C)n(-c2cccc(C(F)(F)F)c2)c1=O [Example 10, 4-(5-{3-Butanoyl-5-methyl-2-oxo-1-[3-(trifluoromethyl)phenyl]-2,3-dihydro-1H-imidazol-4-yl}-1H-pyrazol-1-yl)benzonitrile]"
7,> 9.00,"Cc1c(-c2ccnn2-c2ccc(C#N)cc2)n(C(=O)NC2CCOC2)c(=O)n1-c1cccc(C(F)(F)F)c1 (stereo not drawn) [Example 14, 5-[1-(4-Cyanophenyl)-1H-pyrazol-5-yl]-4-methyl-2-oxo-N-(tetrahydrofuran-3-yl)-3-[3-(trifluoromethyl)phenyl]-2,3-dihydro-1H-imidazole-1-carboxamide]"
8,> 9.00,"CCCCC(=O)n1c(-c2ccnn2-c2ccc(C#N)cc2)c(C)n(-c2cccc(C(F)(F)F)c2)c1=O [Example 19, 4-(5-{5-Methyl-2-oxo-3-pentanoyl-1-[3-(trifluoromethyl)phenyl]-2,3-dihydro-1H-imidazol-4-yl}-1H-pyrazol-1-yl)benzonitrile]"
9,7.30 to 8.00,"Cc1c(-c2ccnn2-c2ccc(C#N)cc2)n(CC(=O)OC(C)(C)C)c(=O)n1-c1cccc(C(F)(F)F)c1 [Example 20, tert-Butyl-{5-[1-(4-cyanophenyl)-1H-pyrazol-5-yl]-4-methyl-2-oxo-3-[3-(trifluoromethyl)phenyl]-2,3-dihydro-1H-imidazol-1-yl}acetate]"
